These results are taken from US20250066388A1, “1,3,4,7-TETRAHYDRO-2H-PYRROLO[3',2':5,6]PYRIDO[2,3-B][1,4]OXAZEPINE BCL-2 INHIBITORS” (AbbVie Inc., priority 2022, published 2025).

A value given as a limit tells only on which side of the number the result lay.

One test deals with RS4;11 cells. Nature of the test: Cell viability assay (CellTiter-Glo) in RS4;11 cells. Type of test: cell-based. The note with it: 10% Human Serum. As for the experimental part:
(§1) The acute lymphoblastic leukemia (ALL) human cell line RS4;11 (ATCC, Manassas VA) was used as the primary human cell line to assess the cellular activity of compound of the present Examples in vitro and their efficacy in vivo. […] The acute lymphoblastic leukemia cell line Molt-4, which is derived from immature T-lymphoid cells (T-ALL), was used as a counter screen assay.
(§2) 3000 Cells (0.1×10^6/mL) were seeded in each well of 384-well plate and were treated for 24 hours in a humidified chamber with 5% CO2. Cell viability was determined by CellTiter-Glo as described by the manufacturer's instructions (Promega Corporation, Madison, WI, USA).
A general note: In ATP-based viability assays light output follows the ATP content of the culture.

The subject of another test is Molt-4 cells. The test can be described thus: Cell viability counter screen (CellTiter-Glo) in Molt-4 cells. The note with it: 24 hours, 10% Human Serum. The class given is cell-based. As to the method:
as §1, §2

The next test addresses Bcl-2 protein (Homo sapiens (Human), UniProt P10415). The test can be described thus: TR-FRET binding assay, Bcl-2. The note with it: F-Bak peptide probe, GST-Bcl-2. (In general: Time-resolved FRET reads energy transfer from a long-lived donor to a nearby acceptor.)
Another test addresses Bcl-xL protein (Homo sapiens (Human), UniProt Q07817). The test can be described thus: TR-FRET binding assay, Bcl-xL. The note with it: F-Bak peptide probe.

Chain of Bcl-2 protein (P10415 other isoform, or with tags, fused parts or gaps): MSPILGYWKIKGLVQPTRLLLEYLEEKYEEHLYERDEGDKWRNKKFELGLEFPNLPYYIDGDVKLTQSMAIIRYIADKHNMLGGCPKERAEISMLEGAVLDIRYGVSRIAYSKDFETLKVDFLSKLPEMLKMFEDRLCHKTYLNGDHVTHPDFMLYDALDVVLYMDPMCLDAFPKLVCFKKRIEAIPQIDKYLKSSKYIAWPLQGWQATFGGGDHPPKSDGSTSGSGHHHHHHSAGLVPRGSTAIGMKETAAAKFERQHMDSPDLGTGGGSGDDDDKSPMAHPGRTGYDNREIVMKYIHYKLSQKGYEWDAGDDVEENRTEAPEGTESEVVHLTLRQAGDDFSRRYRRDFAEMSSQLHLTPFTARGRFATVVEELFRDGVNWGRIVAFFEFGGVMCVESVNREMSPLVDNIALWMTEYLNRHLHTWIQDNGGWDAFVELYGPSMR
Chain of Bcl-xL protein (Q07817 other isoform, or with tags, fused parts or gaps): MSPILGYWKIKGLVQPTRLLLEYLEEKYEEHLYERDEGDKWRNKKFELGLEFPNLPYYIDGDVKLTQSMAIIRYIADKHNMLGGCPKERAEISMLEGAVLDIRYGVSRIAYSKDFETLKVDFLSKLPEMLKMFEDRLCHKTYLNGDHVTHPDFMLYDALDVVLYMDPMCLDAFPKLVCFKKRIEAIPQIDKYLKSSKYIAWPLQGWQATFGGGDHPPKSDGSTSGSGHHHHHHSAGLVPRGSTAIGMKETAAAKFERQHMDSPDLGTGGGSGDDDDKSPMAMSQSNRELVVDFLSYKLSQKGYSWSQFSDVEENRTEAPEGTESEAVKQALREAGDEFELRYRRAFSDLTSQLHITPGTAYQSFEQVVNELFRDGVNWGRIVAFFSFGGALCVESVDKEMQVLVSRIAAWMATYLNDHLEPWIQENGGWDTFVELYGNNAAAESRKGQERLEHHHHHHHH

As a reminder, the EC50 is the concentration that produces a half-maximal response. A higher EC50 goes with lower potency in that assay. For orientation: Ki means a measure of affinity in units of concentration, obtained from inhibition or displacement. Take `CC1(C)CC(c2ccc(Cl)cc2)=C2CN3CCN(c4ccc(C(=O)NS(=O)(=O)c5ccc(NCC6CCOCC6)c([N+](=O)[O-])c5)c(N5CCCOc6nc7[nH]ccc7cc65)c4)C[C@H]3COCCCO[C@@H]2C1` [Example 1, 4-((4aS,10aR)-14-(4-chlorophenyl)-12,12-dimethyl-1,2,4a,5,8,9,10a,11,13,15-decahydro-7H,12H-benzo[f]pyrazino[2,1-c][1,8]dioxa[4]azacycloundecin-3(4H)-yl)-2-(3,4-dihydro-2H-pyrrolo[3′,2′:5,6]pyrido[2,3-b][1,4]oxazepin-1(7H)-yl)-N-((3-nitro-4-(((tetrahydro-2H-pyran-4-yl)methyl)amino)phenyl)sulfonyl)benzamide]: the values for the concentration for a half-maximal effect (EC50) with RS4;11 cells (24 hours) and in the test on Molt-4 cells were 4.01 nM and greater than 10000 nM, respectively. The Ki was 0.459 nM on Bcl-2 protein and 19.4 nM at Bcl-xL protein.
As to `CC1(C)CC(c2ccc(Cl)cc2)=C2CN3CCN(c4ccc(C(=O)NS(=O)(=O)c5ccc(NC[C@H]6CC[C@](C)(O)CO6)c([N+](=O)[O-])c5)c(N5CCCOc6nc7[nH]ccc7cc65)c4)C[C@H]3COCCCO[C@@H]2C1` [Example 2, 4-((4aS,10aR)-14-(4-chlorophenyl)-12,12-dimethyl-1,2,4a,5,8,9,10a,11,13,15-decahydro-7H,12H-benzo[f]pyrazino[2,1-c][1,8]dioxa[4]azacycloundecin-3(4H)-yl)-2-(3,4-dihydro-2H-pyrrolo[3′,2′:5,6]pyrido[2,3-b][1,4]oxazepin-1(7H)-yl)-N-((4-((((2R,5S)-5-hydroxy-5-methyltetrahydro-2H-pyran-2-yl)methyl)amino)-3-nitrophenyl)sulfonyl)benzamide], the figures for the EC50 in the test on RS4;11 cells (24 hours) and in the test on Molt-4 cells were 0.651 nM and 1220 nM, respectively. The Ki is 0.0489 nM at Bcl-2 protein and 9.3 nM on Bcl-xL protein.
For `C[C@@H]1CO[C@@H](CNc2ccc(S(=O)(=O)NC(=O)c3ccc(N4CCN5CC6=C(c7ccc(Cl)cc7)CC(C)(C)C[C@H]6OCCCOC[C@@H]5C4)cc3N3CCCOc4nc5[nH]ccc5cc43)cc2[N+](=O)[O-])CO1` [Example 6, 4-((4aS,10aR)-14-(4-chlorophenyl)-12,12-dimethyl-1,2,4a,5,8,9,10a,11,13,15-decahydro-7H,12H-benzo[f]pyrazino[2,1-c][1,8]dioxa[4]azacycloundecin-3(4H)-yl)-2-(3,4-dihydro-2H-pyrrolo[3′,2′:5,6]pyrido[2,3-b][1,4]oxazepin-1(7H)-yl)-N-((4-((((2S,5R)-5-methyl-1,4-dioxan-2-yl)methyl)amino)-3-nitrophenyl)sulfonyl)benzamide], the EC50 in the test on RS4;11 cells (24 hours) was 1.55 nM; with Molt-4 cells it was 1910 nM. In addition, the figures for the Ki at Bcl-2 protein and on Bcl-xL protein were 0.438 nM and 5.62 nM, respectively.
As for `CC1(C)CC(c2ccc(Cl)cc2)=C2CN3CCN(c4ccc(C(=O)NS(=O)(=O)c5ccc(NC[C@H]6CC[C@H](O)CO6)c([N+](=O)[O-])c5)c(N5CCCOc6nc7[nH]ccc7cc65)c4)C[C@H]3COCCCO[C@@H]2C1` [Example 12, 4-((4aS,10aR)-14-(4-chlorophenyl)-12,12-dimethyl-1,2,4a,5,8,9,10a,11,13,15-decahydro-7H,12H-benzo[f]pyrazino[2,1-c][1,8]dioxa[4]azacycloundecin-3(4H)-yl)-2-(3,4-dihydro-2H-pyrrolo[3′,2′:5,6]pyrido[2,3-b][1,4]oxazepin-1(7H)-yl)-N-((4-((((2R,5S)-5-hydroxytetrahydro-2H-pyran-2-yl)methyl)amino)-3-nitrophenyl)sulfonyl)benzamide], the EC50 is 0.966 nM in the test on RS4;11 cells (Homo sapiens, RS4-11, 24 h) and 823 nM with Molt-4 cells. Also, the Ki on Bcl-2 protein stood at 0.888 nM; on Bcl-xL protein it was 6.13 nM.
On to `CC1(C)CC(c2ccc(Cl)cc2)=C2CN3CCN(c4ccc(C(=O)NS(=O)(=O)c5ccc(NC[C@H]6CC[C@](O)(CF)CC6)c([N+](=O)[O-])c5)c(N5CCCOc6nc7[nH]ccc7cc65)c4)C[C@H]3COCCCO[C@@H]2C1` [Example 14, 4-((4aS,10aR)-14-(4-chlorophenyl)-12,12-dimethyl-1,2,4a,5,8,9,10a,11,13,15-decahydro-7H,12H-benzo[f]pyrazino[2,1-c][1,8]dioxa[4]azacycloundecin-3(4H)-yl)-2-(3,4-dihydro-2H-pyrrolo[3′,2′:5,6]pyrido[2,3-b][1,4]oxazepin-1(7H)-yl)-N-((4-((((1s,4s)-4-(fluoromethyl)-4-hydroxycyclohexyl)methyl)amino)-3-nitrophenyl)sulfonyl)benzamide], for which the values for the EC50 in the test with RS4;11 cells (24 hours) and with Molt-4 cells were 1.64 nM and 1740 nM, respectively. Besides, the figures for the Ki at Bcl-2 protein and on Bcl-xL protein were 0.24 nM and 20.8 nM, respectively.
The like results for `CC1(C)CC(c2ccc(Cl)cc2)=C2CN3CCN(c4ccc(C(=O)NS(=O)(=O)c5ccc(NC[C@H]6C[C@](O)(C7CCC7)C6)c([N+](=O)[O-])c5)c(N5CCCOc6nc7[nH]ccc7cc65)c4)C[C@H]3COCCCO[C@@H]2C1` [Example 15, 4-((4aS,10aR)-14-(4-chlorophenyl)-12,12-dimethyl-1,2,4a,5,8,9,10a,11,13,15-decahydro-7H,12H-benzo[f]pyrazino[2,1-c][1,8]dioxa[4]azacycloundecin-3(4H)-yl)-2-(3,4-dihydro-2H-pyrrolo[3′,2′:5,6]pyrido[2,3-b][1,4]oxazepin-1(7H)-yl)-N-((4-((((1s,3s)-1-hydroxy-[1,1′-bi(cyclobutan)]-3-yl)methyl)amino)-3-nitrophenyl)sulfonyl)benzamide] were, in that order, 5.64 nM, 2550 nM, 0.552 nM and 13.9 nM.
With `CC1(C)CC(c2ccc(Cl)cc2)=C2CN3CCN(c4ccc(C(=O)NS(=O)(=O)c5ccc(NCC6CCCCO6)c([N+](=O)[O-])c5)c(N5CCCOc6nc7[nH]ccc7cc65)c4)C[C@H]3COCCCO[C@@H]2C1` (stereo partly drawn) [Example 45, 4-((4aS,10aR)-14-(4-chlorophenyl)-12,12-dimethyl-1,2,4a,5,8,9,10a,11,13,15-decahydro-7H,12H-benzo[f]pyrazino[2,1-c][1,8]dioxa[4]azacycloundecin-3(4H)-yl)-2-(3,4-dihydro-2H-pyrrolo[3′,2′:5,6]pyrido[2,3-b][1,4]oxazepin-1(7H)-yl)-N-((3-nitro-4-(((tetrahydro-2H-pyran-2-yl)methyl)amino)phenyl)sulfonyl)benzamide], the EC50 in the test on RS4;11 cells (24 hours) was 10.7 nM; in the test with Molt-4 cells, greater than 10000 nM.
`COC[C@]1(F)C[C@H](CNc2ccc(S(=O)(=O)NC(=O)c3ccc(N4CCN5CC6=C(c7ccc(Cl)cc7)CC(C)(C)C[C@H]6OCCCOC[C@@H]5C4)cc3N3CCCOc4nc5[nH]ccc5cc43)cc2[N+](=O)[O-])C1` [Example 47, 4-((4aS,10aR)-14-(4-chlorophenyl)-12,12-dimethyl-1,2,4a,5,8,9,10a,11,13,15-decahydro-7H,12H-benzo[f]pyrazino[2,1-c][1,8]dioxa[4]azacycloundecin-3(4H)-yl)-2-(3,4-dihydro-2H-pyrrolo[3′,2′:5,6]pyrido[2,3-b][1,4]oxazepin-1(7H)-yl)-N-((4-((((1r,3r)-3-fluoro-3-(methoxymethyl)cyclobutyl)methyl)amino)-3-nitrophenyl)sulfonyl)benzamide]: the results for the EC50 in the test on RS4;11 cells (24 hours) and with Molt-4 cells were 10.9 nM and greater than 10000 nM, respectively.
The like results for `CO[C@]1(CF)C[C@@H](CNc2ccc(S(=O)(=O)NC(=O)c3ccc(N4CCN5CC6=C(c7ccc(Cl)cc7)CC(C)(C)C[C@H]6OCCCOC[C@@H]5C4)cc3N3CCCOc4nc5[nH]ccc5cc43)cc2[N+](=O)[O-])C1` [Example 48, 4-((4aS,10aR)-14-(4-chlorophenyl)-12,12-dimethyl-1,2,4a,5,8,9,10a,11,13,15-decahydro-7H,12H-benzo[f]pyrazino[2,1-c][1,8]dioxa[4]azacycloundecin-3(4H)-yl)-2-(3,4-dihydro-2H-pyrrolo[3′,2′:5,6]pyrido[2,3-b][1,4]oxazepin-1(7H)-yl)-N-((4-((((1r,3r)-3-(fluoromethyl)-3-methoxycyclobutyl)methyl)amino)-3-nitrophenyl)sulfonyl)benzamide] were, in that order, 18.1 nM and 5840 nM.
The like results for `CC1(C)CC(c2ccc(Cl)cc2)=C2CN3CCN(c4ccc(C(=O)NS(=O)(=O)c5ccc(OC[C@H]6CC[C@@](C)(O)CC6)c([N+](=O)[O-])c5)c(N5CCCOc6nc7[nH]ccc7cc65)c4)C[C@H]3COCCCO[C@@H]2C1` [Example 49, 4-((4aS,10aR)-14-(4-chlorophenyl)-12,12-dimethyl-1,2,4a,5,8,9,10a,11,13,15-decahydro-7H,12H-benzo[f]pyrazino[2,1-c][1,8]dioxa[4]azacycloundecin-3(4H)-yl)-2-(3,4-dihydro-2H-pyrrolo[3′,2′:5,6]pyrido[2,3-b][1,4]oxazepin-1(7H)-yl)-N-((4-(((1s,4s)-4-hydroxy-4-methylcyclohexyl)methoxy)-3-nitrophenyl)sulfonyl)benzamide] were, in that order, 25 nM and 36 nM.
The like results for `CO[C@@H]1CC[C@@H](COc2ccc(S(=O)(=O)NC(=O)c3ccc(N4CCN5CC6=C(c7ccc(Cl)cc7)CC(C)(C)C[C@H]6OCCCOC[C@@H]5C4)cc3N3CCCOc4nc5[nH]ccc5cc43)cc2[N+](=O)[O-])OC1` [Example 51, 4-((4aS,10aR)-14-(4-chlorophenyl)-12,12-dimethyl-1,2,4a,5,8,9,10a,11,13,15-decahydro-7H,12H-benzo[f]pyrazino[2,1-c][1,8]dioxa[4]azacycloundecin-3(4H)-yl)-2-(3,4-dihydro-2H-pyrrolo[3′,2′:5,6]pyrido[2,3-b][1,4]oxazepin-1(7H)-yl)-N-((4-(((2S,5R)-5-methoxytetrahydro-2H-pyran-2-yl)methoxy)-3-nitrophenyl)sulfonyl)benzamide] were, in that order, 9.6 nM and greater than 10000 nM.
